Measured values as given in patent publication US20170240535A1, “HDAC1/2 INHIBITORS FOR THE TREATMENT OF NEURODEGENERATIVE AND/OR COGNITIVE DISORDERS” (Regenacy Pharmaceuticals, LLC, priority 2016, published 2017).

Columns and labels:
HDAC1 = target: T1, HDAC1 (Homo sapiens, UniProt Q13547); test: HDAC enzyme assay, HDAC1; format: biochemical; details: enzyme and compound incubated 24 hours at room temperature
T1 construct: purchased BPS Biosciences
Experimental: (§1) Compounds for testing were diluted in DMSO to 50 fold the final concentration and a ten point three fold dilution series was made. The compounds were diluted in assay buffer (50 mM HEPES, pH 7.4, 100 mM KCl, 0.001% Tween-20, 0.05% BSA, 20 μM TCEP) to 6 fold their final concentration. The HDAC enzymes (purchased from BPS Biosciences) were diluted to 1.5 fold their final concentration in assay buffer. The tripeptide substrate and trypsin at 0.05 μM final concentration were diluted in assay buffer at 6 fold their final concentration. The final enzyme concentrations used in these assays were 3.3 ng/ml (HDAC1), 0.2 ng/ml (HDAC2) and 0.08 ng/ml (HDAC3). The final substrate concentrations used were 16 μM (HDAC1), 10 μM (HDAC2) and 17 μM (HDAC3). Five μl of compound and 20 μl of enzyme were added to wells of a black, opaque 384 well plate in duplicate. Enzyme and compound were incubated together at room temperature for 24 hours. Five μl of substrate was added to each well, the plate was shaken for 60 seconds and placed into a Victor 2 microtiter plate reader. The development of fluorescence was monitored for 60 min and the linear rate of the reaction was calculated. The IC50 was determined using Graph Pad Prism by a four parameter curve fit.

HDAC3 = target: T2, HDAC3 (Homo sapiens, UniProt O15379); test: HDAC enzyme assay, HDAC3; format: biochemical; details: enzyme and compound incubated 24 hours at room temperature
T2 construct: purchased BPS Biosciences
T2 sequence (O15379 whole entry): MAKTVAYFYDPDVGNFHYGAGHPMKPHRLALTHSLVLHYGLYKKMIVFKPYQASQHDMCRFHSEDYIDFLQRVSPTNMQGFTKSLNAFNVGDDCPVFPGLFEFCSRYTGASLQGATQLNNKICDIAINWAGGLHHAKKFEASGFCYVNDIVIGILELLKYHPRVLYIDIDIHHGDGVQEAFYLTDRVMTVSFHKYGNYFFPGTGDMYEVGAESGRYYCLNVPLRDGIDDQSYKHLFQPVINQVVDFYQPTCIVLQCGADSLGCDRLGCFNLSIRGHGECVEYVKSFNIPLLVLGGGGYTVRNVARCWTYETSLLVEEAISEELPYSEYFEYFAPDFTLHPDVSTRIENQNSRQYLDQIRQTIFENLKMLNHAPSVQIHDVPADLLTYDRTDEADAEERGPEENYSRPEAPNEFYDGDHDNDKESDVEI
T2 sequence (Q9Y618 395-489 partner limits assumed): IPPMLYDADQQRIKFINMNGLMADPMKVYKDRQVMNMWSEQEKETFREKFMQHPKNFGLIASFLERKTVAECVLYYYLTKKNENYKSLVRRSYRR
Experimental: as §1

aged mice = test: Morris Water Maze, young and aged mice; format: in vivo
Experimental: The ability of HDAC1/2 inhibitor Compound 1 to improve cognitive deficits in aged mice was tested by InterVivo Solutions (Toronto, Canada). Young (3 months old) and aged (18 months old) mice were compared in a Morris Water Maze to measure differences in learning and memory.
Mice were first placed in a pool of water and trained to swim to a visible flagged platform (the cued task). The mice received 3 trails per day for 5 days and the time it took for the mice to find the platform was timed. Young mice and aged mice performed equally well at this task, indicating there was no difference in swimming speed between the two cohorts of mice.
Next, mice were trained in a place task, in which the platform is submerged and hidden with flags to indicate the fixed location of the platform. The mice were trained for 4 days with 3 trials per day.

[1] = Pharmacokinetics in plasma and brain after IV administration; format: in vivo; details: IV 1 mg/kg, male C57BL/6 mice
Experimental: Male C57Bl/6 mice were fasted overnight. Compounds of the invention were dissolved in dimethyl acetamide at 10 times the final concentration, then Solutol HS 15 (BASF) was added to a final concentration of 10%. Finally 80% saline was added and vortexed to achieve a clear solution. Fifteen animals were injected via the tail vein with 1 mg/kg compound. Blood was collected via retro orbital puncture into K2EDTA tubes at 5 minutes, 15 minutes, 30 minutes, 1 hour, 2 hours, 4 hours, 8 hours and 24 hours after dosing. The blood was centrifuged at 2000 g for 5 minutes at 4° C. to obtain plasma. The plasma was extracted with acetonitrile and the level of compound was analyzed by LC/MS/MS. The level of compound in plasma was calculated from a standard curve in mouse plasma. For brain levels, animals were sacrificed at 5 minutes, 15 minutes, 1 hour, 4 hours and 24 hours. Brains were removed and homogenized in acetonitrile and extracted. The level of compound in brain was calculated from a standard curve in mouse brain tissue. The IV clearance and area under the curve were calculated using WinNonLin software. The ratio of area under the curve for plasma and brain samples was calculated to produce the brain/plasma ratio.

[2] = Pharmacokinetics of Compound 1 in plasma and brain after IP and PO administration (discrete PK); format: in vivo; details: male C57BL/6 mice; for Kp / Cmax / Tmax / half-life / AUC(0-inf) / AUC(0-t): mouse; for Kp: brain/plasma, read-out: AUCbrain/AUCplasma; for half-life: read-out: Terminal t1/2 (converted)
Experimental: Male C57Bl/6 mice were fasted overnight. Compound 1 was dissolved in 20% HydroxyPropyl-β-Cyclodextran in water. Fifteen animals per experimental arm were dosed by intraperitoneal injection or by oral gavage. Blood was collected via retro orbital puncture into K2EDTA tubes at 5 minutes, 15 minutes, 30 minutes, 1 hour, 2 hours, 4 hours, 8 hours and 24 hours after dosing. The blood was centrifuged at 2000 g for 5 minutes at 4° C. to obtain plasma. The plasma was extracted with acetonitrile and the level of compound was analyzed by LC/MS/MS. The level of compound in plasma was calculated from a standard curve in mouse plasma. For brain levels, animals were sacrificed at 15 minutes, 1 hour, 4 hours, 8 hours and 24 hours. Brains were removed and homogenized in acetonitrile and extracted. The level of compound in brain was calculated from a standard curve in mouse brain tissue. The maximum concentration, half-life and area under the curve were calculated using WinNonLin software. The ratio of area under the curve for plasma and brain samples was calculated to produce the brain/plasma ratio.

[3] = young mice (3 months old), 10 mg/kg/day, 4 weeks

T1 sequence (Q13547 whole entry): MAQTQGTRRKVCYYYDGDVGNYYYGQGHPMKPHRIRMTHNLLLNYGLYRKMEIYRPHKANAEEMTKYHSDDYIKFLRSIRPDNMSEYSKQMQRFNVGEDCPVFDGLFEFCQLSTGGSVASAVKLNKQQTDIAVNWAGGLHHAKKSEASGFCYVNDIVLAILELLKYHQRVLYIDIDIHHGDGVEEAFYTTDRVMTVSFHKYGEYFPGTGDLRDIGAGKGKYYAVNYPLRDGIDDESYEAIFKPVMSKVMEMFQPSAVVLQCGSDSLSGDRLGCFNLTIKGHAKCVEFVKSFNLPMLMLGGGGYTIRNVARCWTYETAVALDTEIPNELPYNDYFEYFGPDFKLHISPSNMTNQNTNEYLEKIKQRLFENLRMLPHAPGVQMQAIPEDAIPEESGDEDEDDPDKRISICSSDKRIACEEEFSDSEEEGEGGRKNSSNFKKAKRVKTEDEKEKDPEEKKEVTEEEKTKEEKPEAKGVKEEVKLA

Structure (SMILES): Nc1ccc(-c2ccccc2)cc1NC(=O)c1cc2ccc(N3CCNCC3)cc2cn1 [Compound 1]
- IC50 (HDAC1): 5 nM
- IC50 (HDAC3): 84 nM
- learning rate in place task (aged mice; aged mice (18 months old), 10 mg/kg/day, 4 weeks): learn at a rate greater than the young untreated cohort
- performance in place test vs corresponding untreated mice (aged mice; young and aged mice, 10 mg/kg/day for 4 weeks): perform better in the place test than the corresponding untreated mice
- learning rate in place task (aged mice; [3]): dramatic improvement in learning rate
- reduction in escape latency as compared to untreated mice, place task (aged mice; [3]): 25%
- brain penetrance (from brain/plasma AUC ratios) [1]: highly brain penetrant
- AUCINF ([1]; brain): 12187 ng·h/g
- AUClast ([1]; brain): 10505 ng·h/g
- Kp ([1]; mouse, brain/plasma, read-out: AUCbrain/AUCplasma): 4.05
- Cmax ([1]; mouse, brain): 675 ng/g
- Tmax ([1]; mouse, brain): 1 h
- half-life ([1]; mouse, brain): 9.12 h
- AUC(0-inf) ([1]; mouse, plasma, PK cassette): 3010 ng·h/mL
- AUC(0-t) ([1]; mouse, plasma, PK cassette): 2680 ng·h/mL
- MRT inf ([1]; mouse, plasma, PK cassette): 10.4 h
- clearance ([1]; mouse, plasma, PK cassette): 5.55 mL/min/kg
- half-life ([1]; mouse, plasma, PK cassette): 7.8 h
- Vd ([1]; mouse, plasma, PK cassette, read-out: Vss): 3.47 L/kg
- brain penetrance (from brain/plasma AUC ratios) ([2]; IP or PO, 3 and 10 mg/kg): highly brain penetrant
- AUCINF-brain ([2]; brain, IP 3 mg/kg): 21015 ng·h/g
- AUClast-brain ([2]; brain, IP 3 mg/kg): 19737 ng·h/g
- AUCINF-brain ([2]; brain, IP 10 mg/kg): 87609 ng·h/g
- AUClast-brain ([2]; brain, IP 10 mg/kg): 78978 ng·h/g
- AUCINF-brain ([2]; brain, PO 3 mg/kg): 10651 ng·h/g
- AUClast-brain ([2]; brain, PO 3 mg/kg): 10019 ng·h/g
- AUCINF-brain ([2]; brain, PO 10 mg/kg): 58481 ng·h/g
- AUClast-brain ([2]; brain, PO 10 mg/kg): 53716 ng·h/g
- Kp ([2]; IP 3 mg/kg): 15.1
- Kp ([2]; IP 10 mg/kg): 15.9
- Kp ([2]; PO 3 mg/kg): 6.81
- Kp ([2]; PO 10 mg/kg): 10.8
- Cmax ([2]; brain, IP 3 mg/kg): 1490 ng/g
- Tmax ([2]; brain, IP 3 mg/kg): 4 h
- half-life ([2]; brain, IP 3 mg/kg): 5.87 h
- Cmax ([2]; brain, IP 10 mg/kg): 5320 ng/g
- Tmax ([2]; brain, IP 10 mg/kg): 4 h
- half-life ([2]; brain, IP 10 mg/kg): 7.13 h
- Cmax ([2]; brain, PO 3 mg/kg): 743 ng/g
- Tmax ([2]; brain, PO 3 mg/kg): 4 h
- half-life ([2]; brain, PO 3 mg/kg): 5.8 h
- Cmax ([2]; brain, PO 10 mg/kg): 3650 ng/g
- Tmax ([2]; brain, PO 10 mg/kg): 8 h
- half-life ([2]; brain, PO 10 mg/kg): 6.76 h
- AUC(0-inf) ([2]; plasma, IP 3 mg/kg): 1320 ng·h/mL
- AUC(0-t) ([2]; plasma, IP 3 mg/kg): 1310 ng·h/mL
- Cmax ([2]; plasma, IP 3 mg/kg): 318 ng/mL
- Tmax ([2]; plasma, IP 3 mg/kg): 0.5 h
- half-life ([2]; plasma, IP 3 mg/kg): 3.88 h
- AUC(0-inf) ([2]; plasma, IP 10 mg/kg): 5040 ng·h/mL
- AUC(0-t) ([2]; plasma, IP 10 mg/kg): 4960 ng·h/mL
- Cmax ([2]; plasma, IP 10 mg/kg): 1020 ng/mL
- Tmax ([2]; plasma, IP 10 mg/kg): 0.25 h
- half-life ([2]; plasma, IP 10 mg/kg): 4.2 h
- AUC(0-inf) ([2]; plasma, PO 3 mg/kg): 1480 ng·h/mL
- AUC(0-t) ([2]; plasma, PO 3 mg/kg): 1470 ng·h/mL
- Cmax ([2]; plasma, PO 3 mg/kg): 135 ng/mL
- Tmax ([2]; plasma, PO 3 mg/kg): 2 h
- half-life ([2]; plasma, PO 3 mg/kg): 3.44 h
- AUC(0-inf) ([2]; plasma, PO 10 mg/kg): 5060 ng·h/mL
- AUC(0-t) ([2]; plasma, PO 10 mg/kg): 4990 ng·h/mL
- Cmax ([2]; plasma, PO 10 mg/kg): 561 ng/mL
- Tmax ([2]; plasma, PO 10 mg/kg): 1 h
- half-life ([2]; plasma, PO 10 mg/kg): 4.08 h
